Patent US9115169B2, “Method of treating tumors” (Lytix Biopharma AS, priority 2000, dated 2015)
Values after ≈ are worked out from the molar mass of the structure shown. Like-named read-outs stand apart in the source and are kept apart here. Where a SMILES comes first, the peptide text is derived from it. Where no end group is shown, it is not given here. [ ]: non-standard residue; d: D form. The star is where a group is joined. Trp(2-Pmc) = Cc1c(C)c(S(=O)(=O)c2[nH]c3ccccc3c2C[C@H](N)C(=O)O)c(C)c2c1OC(C)(C)CC2; Bip = N[C@@H](Cc1ccc(-c2ccccc2)cc1)C(=O)O; OBn = c1ccc(CO*)cc1

Key:
[1] = test system: Staphylococcus aureus ATCC 25923
[2] = test system: Escherichia coli ATCC 25922

MIC S. aureus ([1]; ATCC 25923)	MIC S. aureus ([1]; Table 8, second column)	MIC E. coli ([2]; ATCC 25922)	MIC E. coli ([2]; Table 8, second column)	MIC S. aureus ([1]; Table 8, first column)	MIC E. coli ([2]; Table 8, first column)	Compound	Minimum inhibitory concentration S. aureus ([1]; ATCC 25923)	Minimum inhibitory concentration E. coli ([2]; ATCC 25922)
35 µg/mL (≈ 39.7 µM)	39.7 μM/ml	>300 µg/mL	340.5 μM/ml	–	–	C[C@H](NC(=O)[C@H](C)NC(=O)[C@H](Cc1ccc(-c2ccccc2)cc1)NC(=O)[C@@H](N)Cc1c[nH]c2ccccc12)C(=O)N[C@@H](CCCNC(=N)N)C(=O)N[C@@H](CCCNC(=N)N)C(N)=O [WBAARR-NH2] (H-W[Bip]AARR-NH2; N-terminus assumed)	–	–
5 to 10 µg/mL	5.0-9.9 μM/ml	>100 µg/mL	99.5 μM/ml	–	–	Cc1c(C)c(S(=O)(=O)c2[nH]c3ccccc3c2C[C@H](N)C(=O)N[C@@H](Cc2ccc(-c3ccccc3)cc2)C(=O)N[C@@H](CCCNC(=N)N)C(=O)N[C@@H](CCCNC(=N)N)C(N)=O)c(C)c2c1OC(C)(C)CC2 [WBRR-NH2 Pmc+] (H-[Trp(2-Pmc)][Bip]RR-NH2; N-terminus assumed)	–	–
20 µg/mL (≈ 27.1 µM)	27.1 μM/ml	>100 µg/mL	135.3 μM/ml	–	–	N=C(N)NCCC[C@H](NC(=O)[C@H](CCCNC(=N)N)NC(=O)[C@H](Cc1ccc(-c2ccccc2)cc1)NC(=O)[C@@H](N)Cc1c[nH]c2ccccc12)C(N)=O [WBRR-NH2] (H-W[Bip]RR-NH2; N-terminus assumed)	–	–
75 µg/mL (≈ 85.1 µM)	85.1 μM/ml	>300 µg/mL	340.5 μM/ml	–	–	C[C@H](NC(=O)[C@H](C)NC(=O)[C@H](CCCNC(=N)N)NC(=O)[C@H](CCCNC(=N)N)NC(=O)[C@H](Cc1ccc(-c2ccccc2)cc1)NC(=O)[C@@H](N)Cc1c[nH]c2ccccc12)C(N)=O [WBRRAA-NH2] (H-W[Bip]RRAA-NH2; N-terminus assumed)	–	–
35 µg/mL (≈ 39.7 µM)	39.7 μM/ml	150 µg/mL (≈ 170 µM)	170.2 μM/ml	–	–	C[C@H](NC(=O)[C@H](C)NC(=O)[C@H](CCCNC(=N)N)NC(=O)[C@@H](N)Cc1c[nH]c2ccccc12)C(=O)N[C@@H](Cc1ccc(-c2ccccc2)cc1)C(=O)N[C@@H](CCCNC(=N)N)C(N)=O [WRAABR-NH2] (H-WRAA[Bip]R-NH2; N-terminus assumed)	–	–
>200 µg/mL	237.0 μM/ml	>200 µg/mL	237.0 μM/ml	–	–	C[C@H](NC(=O)[C@H](C)NC(=O)[C@H](CCCNC(=N)N)NC(=O)[C@@H](N)Cc1c[nH]c2ccccc12)C(=O)N[C@@H](Cc1c[nH]c2ccccc12)C(=O)N[C@@H](CCCNC(=N)N)C(N)=O [WRAAWR-NH2] (H-WRAAWR-NH2; N-terminus assumed)	–	–
35 µg/mL (≈ 39.7 µM)	39.7 μM/ml	150 µg/mL (≈ 170 µM)	170.2 μM/ml	–	–	C[C@H](NC(=O)[C@H](C)NC(=O)[C@H](CCCNC(=N)N)NC(=O)[C@H](Cc1ccc(-c2ccccc2)cc1)NC(=O)[C@H](CCCNC(=N)N)NC(=O)[C@@H](N)Cc1c[nH]c2ccccc12)C(N)=O [WRBRAA-NH2] (H-WR[Bip]RAA-NH2; N-terminus assumed)	–	–
5 µg/mL (≈ 7.85 µM)	–	–	–	–	–	N=C(N)NCCC[C@H](NC(=O)[C@@H](N)Cc1c[nH]c2ccccc12)C(=O)N[C@@H](Cc1c[nH]c2ccccc12)C(=O)OCc1ccccc1 [WRW-OBzl] (H-Trp-Arg-Trp-OBn)	–	–
>200 µg/mL	237.0 μM/ml	>200 µg/mL	237.0 μM/ml	–	–	C[C@H](NC(=O)[C@H](C)NC(=O)[C@H](Cc1c[nH]c2ccccc12)NC(=O)[C@@H](N)Cc1c[nH]c2ccccc12)C(=O)N[C@@H](CCCNC(=N)N)C(=O)N[C@@H](CCCNC(=N)N)C(N)=O [WWAARR-NH2] (H-WWAARR-NH2; N-terminus assumed)	–	–
100 µg/mL (≈ 237 µM)	–	>300 µg/mL	–	–	–	NCCCC[C@@H](N)C(=O)N[C@@H](Cc1c[nH]c2ccccc12)C(=O)OCc1ccccc1 [kW-OBzl] (H-[dK]-Trp-OBn)	100 µg/mL (≈ 237 µM)	>300 µg/mL

Continued, compound first:

Compound	MIC S. aureus ([1]; ATCC 25923)	MIC S. aureus ([1]; Table 8, second column)	MIC E. coli ([2]; ATCC 25922)	MIC E. coli ([2]; Table 8, second column)	MIC S. aureus ([1]; Table 8, first column)	MIC E. coli ([2]; Table 8, first column)	Minimum inhibitory concentration S. aureus ([1]; ATCC 25923)	Minimum inhibitory concentration E. coli ([2]; ATCC 25922)
C[C@H](N)C(=O)N[C@@H](C)C(=O)N[C@@H](Cc1ccc(-c2ccccc2)cc1)C(=O)N[C@@H](Cc1ccc(-c2ccccc2)cc1)C(=O)N[C@@H](CCCNC(=N)N)C(=O)N[C@@H](CCCNC(=N)N)C(N)=O [AABBRR-NH2] (H-AA[Bip][Bip]RR-NH2; N-terminus assumed)	5 µg/mL (≈ 5.45 µM)	5.4 μM/ml	20 to 35 µg/mL	21.8-38.1 μM/ml	–	–	–	–
C[C@H](N)C(=O)N[C@@H](C)C(=O)N[C@@H](Cc1c[nH]c2ccccc12)C(=O)N[C@@H](Cc1ccc(-c2ccccc2)cc1)C(=O)N[C@@H](CCCNC(=N)N)C(=O)N[C@@H](CCCNC(=N)N)C(N)=O [AAWBRR-NH2] (H-AAW[Bip]RR-NH2; N-terminus assumed)	20 to 35 µg/mL	22.7-39.7 μM/ml	150 µg/mL (≈ 170 µM)	170.2 μM/ml	–	–	–	–
Cc1c(C)c(S(=O)(=O)c2[nH]c3ccccc3c2C[C@H](NC(=O)[C@H](C)NC(=O)[C@H](C)N)C(=O)N[C@@H](CCCNC(=N)N)C(=O)N[C@@H](Cc2ccc(-c3ccccc3)cc2)C(=O)N[C@@H](CCCNC(=N)N)C(N)=O)c(C)c2c1OC(C)(C)CC2 [AAWRBR-NH2 Pmc+] (H-AA[Trp(2-Pmc)]R[Bip]R-NH2; N-terminus assumed)	–	2.2 μM/ml	–	13.1 μM/ml	–	–	–	–
C[C@H](N)C(=O)N[C@@H](C)C(=O)N[C@@H](Cc1c[nH]c2ccccc12)C(=O)N[C@@H](CCCNC(=N)N)C(=O)N[C@@H](Cc1ccc(-c2ccccc2)cc1)C(=O)N[C@@H](CCCNC(=N)N)C(N)=O [AAWRBR-NH2] (H-AAWR[Bip]R-NH2; N-terminus assumed)	35 µg/mL (≈ 39.7 µM)	39.7 μM/ml	150 to 300 µg/mL	–	–	–	–	–
C[C@H](N)C(=O)N[C@@H](C)C(=O)N[C@@H](Cc1c[nH]c2ccccc12)C(=O)N[C@@H](Cc1c[nH]c2ccccc12)C(=O)N[C@@H](CCCNC(=N)N)C(=O)N[C@@H](CCCNC(=N)N)C(N)=O [AAWWRR-NH2] (H-AAWWRR-NH2; N-terminus assumed)	>200 µg/mL	237.0 μM/ml	>200 µg/mL	237.0 μM/ml	–	–	–	–
Cc1c(C)c(S(=O)(=O)c2[nH]c3ccccc3c2C[C@H](NC(=O)[C@H](C)N)C(=O)N[C@@H](CCCNC(=N)N)C(=O)N[C@@H](Cc2ccc(-c3ccccc3)cc2)C(=O)N[C@@H](CCCNC(=N)N)C(=O)N[C@@H](C)C(N)=O)c(C)c2c1OC(C)(C)CC2 [AWRBRA-NH2 Pmc+] (H-A[Trp(2-Pmc)]R[Bip]RA-NH2; N-terminus assumed)	–	2.2 μM/ml	–	8.7 μM/ml	–	–	–	–
C[C@H](N)C(=O)N[C@@H](Cc1c[nH]c2ccccc12)C(=O)N[C@@H](CCCNC(=N)N)C(=O)N[C@@H](Cc1ccc(-c2ccccc2)cc1)C(=O)N[C@@H](CCCNC(=N)N)C(=O)N[C@@H](C)C(N)=O [AWRBRA-NH2] (H-AWR[Bip]RA-NH2; N-terminus assumed)	35 µg/mL (≈ 39.7 µM)	39.7 μM/ml	35 µg/mL (≈ 39.7 µM)	39.7 μM/ml	–	–	–	–
C[C@H](NC(=O)[C@H](C)NC(=O)[C@H](Cc1ccc(-c2ccccc2)cc1)NC(=O)[C@@H](N)Cc1ccc(-c2ccccc2)cc1)C(=O)N[C@@H](CCCNC(=N)N)C(=O)N[C@@H](CCCNC(=N)N)C(N)=O [BBAARR-NH2] (H-[Bip][Bip]AARR-NH2; N-terminus assumed)	5 µg/mL (≈ 5.45 µM)	5.4 μM/ml	>150 µg/mL	163.4 μM/ml	–	–	–	–
N=C(N)NCCC[C@H](NC(=O)[C@H](CCCNC(=N)N)NC(=O)[C@H](Cc1ccc(-c2ccccc2)cc1)NC(=O)[C@@H](N)Cc1ccc(-c2ccccc2)cc1)C(N)=O [BBRR-NH2] (H-[Bip][Bip]RR-NH2; N-terminus assumed)	5 µg/mL (≈ 6.44 µM)	6.4 μM/ml	50 µg/mL (≈ 64.4 µM)	64.4 μM/ml	–	–	–	–
C[C@H](NC(=O)[C@H](C)NC(=O)[C@H](CCCNC(=N)N)NC(=O)[C@H](CCCNC(=N)N)NC(=O)[C@H](Cc1ccc(-c2ccccc2)cc1)NC(=O)[C@@H](N)Cc1ccc(-c2ccccc2)cc1)C(N)=O [BBRRAA-NH2] (H-[Bip][Bip]RRAA-NH2; N-terminus assumed)	5 µg/mL (≈ 5.45 µM)	5.4 μM/ml	75 µg/mL (≈ 81.7 µM)	81.7 μM/ml	–	–	–	–
NCCCC[C@H](N)CN[C@@H](Cc1c[nH]c2ccccc12)C(=O)OCc1ccccc1 [Kψ(CH2NH)WOBzl]	–	–	–	–	–	–	300 µg/mL (≈ 734 µM)	>300 µg/mL
C[C@H](NC(=O)[C@H](C)NC(=O)[C@H](CCCNC(=N)N)NC(=O)[C@@H](N)CCCNC(=N)N)C(=O)N[C@@H](Cc1c[nH]c2ccccc12)C(=O)N[C@@H](Cc1ccc(-c2ccccc2)cc1)C(N)=O [RRAAWB-NH2] (H-RRAAW[Bip]-NH2; N-terminus assumed)	10 µg/mL (≈ 11.4 µM)	11.3 μM/ml	150 to 300 µg/mL	–	–	–	–	–
C[C@H](NC(=O)[C@H](C)NC(=O)[C@H](CCCNC(=N)N)NC(=O)[C@@H](N)CCCNC(=N)N)C(=O)N[C@@H](Cc1c[nH]c2ccccc12)C(=O)N[C@@H](Cc1c[nH]c2ccccc12)C(N)=O [RRAAWW-NH2] (H-RRAAWW-NH2; N-terminus assumed)	>200 µg/mL	237.0 μM/ml	>200 µg/mL	237.0 μM/ml	–	–	–	–
Cc1c(C)c(S(=O)(=O)c2[nH]c3ccccc3c2C[C@H](N)C(=O)N[C@@H](CCCNC(=N)N)C(=O)N[C@@H](Cc2ccc(-c3ccccc3)cc2)C(=O)N[C@@H](CCCNC(=N)N)C(=O)N[C@@H](C)C(=O)N[C@@H](C)C(N)=O)c(C)c2c1OC(C)(C)CC2 [WRBRAA-NH2 Pmc+] (H-[Trp(2-Pmc)]R[Bip]RAA-NH2; N-terminus assumed)	–	4.4 μM/ml	–	13.1 μM/ml	–	–	–	–
AAWWRR-NH2 Pmc+: hexapeptide amide having the Pmc group (also: Pmc group, position not given here)	–	2.3 μM/ml	–	18.0 μM/ml	2.5 µg/mL	20 µg/mL	–	–
